Measurements: PMC6151437, “Antibacterial Synthetic Peptides Derived from Bovine Lactoferricin Exhibit Cytotoxic Effect against MDA-MB-468 and MDA-MB-231 Breast Cancer Cell Lines” (Molecules : A Journal of Synthetic Chemistry and Natural …, 2017)
Read-outs that look alike come from different tables or passages of the source. Bridge positions count the residues as written; N and C are the ends. Square brackets hold non-standard residues; d marks the D form. Ends that are not written are not given here. Peptide text beside a SMILES is read from it. I, II: the chains in the order shown. Ahx = NCCCCCC(=O)O

Legend:
[1] = tested on: E. coli ATCC 25922; assay type: cell-based
Description: (§1) The minimal inhibitory concentration (MIC) was determined using a microdilution assay. In brief, bacterial strains were incubated for 18 to 24 h at 37 °C in an Muller Hinton broth (MHB) until an optical density of 0.15 to 0.30 (620 nm) was obtained. 90 µL of MHB was mixed with 90 µL of peptide (440 µg/mL), and using a 96-well microtiter plate peptide, serial dilution (200, 100, 50, 25, 12.5, and 6.2 µg/mL) was performed. 10 µL of inoculum (2 × 10^6 CFU/mL) was added to each well. Final volume in each well was 100 µL. Then they were incubated for 24 h at 37 °C, and the absorbance at 620 nm was measured using an Asys Expert Plus ELISA reader. For determining the minimum bactericidal concentration (MBC), a small sample was taken from each well using an inoculation loop, which was then spread on MHA plates and incubated overnight at 37 °C. […] Each of these tests was performed twice (n = 2).

[2] = tested on: E. coli ATCC 11775; assay type: cell-based
Description: as §1

[3] = assay type: cell-based, human; settings: human
Description: (§2) Cytotoxicity assays were performed as previously described. Briefly, breast cancer cell lines (100 µL; 2.5 × 10^3 cells/well) were seeded in 96-well flat bottom tissue culture treated plates and were incubated at 37 °C in a 10% CO2 humidified atmosphere for 24 h, allowing for cell adhesion. Then the media was removed, then 100 µL of FBS (5%) and 100 µL of peptide were added. The peptide final concentration was ranging from 200 to 6.25 µg/mL and the final FBS concentration was 2.5%. Plates were incubated 2 h at 37 °C in a 10% CO2 humidified atmosphere (physiologic pH). Negative controls included medium and water. All controls were prepared in triplicate. Cell viability was determined using the MTT assay after 2 h. For this, 10 µL of MTT solution (5 mg/mL) was added to each well, and the plates were incubated for 2 h at 37 °C. Formazan crystals were clarified by centrifugation, the supernatant was discarded, and the crystals were dissolved in DMSO (100 µL). Absorbance (570 nm) was registered on a Bio-Rad 680 microplate reader. (n = 3).

[4] = assay type: cell-based, human; settings: human; remark: listed apart in the source
Description: as §2

[5] = tested on: human gastric cancer cell line AGS; settings: cited from earlier work
[6] = E. coli ATCC 25922, microdilution in MHB, 24 h at 37 °C, absorbance 620 nm, n = 2
[7] = E. coli ATCC 25922, plated on MHA overnight at 37 °C, no bacterial growth, n = 2
[8] = E. coli ATCC 11775, microdilution in MHB, 24 h at 37 °C, absorbance 620 nm, n = 2
[9] = E. coli ATCC 11775, plated on MHA overnight at 37 °C, no bacterial growth, n = 2

Row | Antibacterial Effect MIC ([1]; ATCC 25922, 24 h) | Antibacterial Effect MIC [1, 6] [µg/mL] | Antibacterial Effect MIC ([2]; E. coli ATCC 11775, value in parentheses, microdilution in MHB, 24 h at 37 °C, n = 2) [µM] | Antibacterial Effect MIC ([2]; ATCC 11775, 24 h) | IC50 at 2 h [3] [µM] | IC50 at 2 h [4] [µM] | Molecule | Antibacterial Effect MBC ([1]; E. coli ATCC 25922, value in parentheses, plated on MHA overnight at 37 °C, n = 2) [µM] | Antibacterial Effect MBC ([2]; E. coli ATCC 11775, value in parentheses, plated on MHA overnight at 37 °C, n = 2) [µM] | Antibacterial Effect MBC ([1]; ATCC 25922) | Antibacterial Effect MBC [1, 7] [µg/mL] | Antibacterial Effect MBC ([2]; ATCC 11775) | Antibacterial Effect MIC [2, 8] [µg/mL] | Antibacterial Effect MBC [2, 9] [µg/mL] | IC50 [5] [µM]
1 | 24 µM | 100 |  | > 48 µM |  |  | CSCC[C@H](NC(=O)[C@H](CCCNC(=N)N)NC(=O)[C@H](Cc1c[nH]c2ccccc12)NC(=O)[C@H](CCC(N)=O)NC(=O)[C@H](Cc1c[nH]c2ccccc12)NC(=O)[C@H](CCCNC(=N)N)NC(=O)[C@H](CCCNC(=N)N)NC(=O)[C@H](C)NC(=O)[C@H](CCCCN)NC(=O)[C@@H](N)Cc1ccccc1)C(=O)N[C@@H](CCCCN)C(=O)N[C@@H](CCCCN)C(=O)N[C@@H](CC(C)C)C(=O)NCC(=O)N[C@@H](C)C(=O)NCCCC[C@H](NC(=O)[C@H](C)NC(=O)CNC(=O)[C@H](CC(C)C)NC(=O)[C@H](CCCCN)NC(=O)[C@H](CCCCN)NC(=O)[C@H](CCSC)NC(=O)[C@H](CCCNC(=N)N)NC(=O)[C@H](Cc1c[nH]c2ccccc12)NC(=O)[C@H](CCC(N)=O)NC(=O)[C@H](Cc1c[nH]c2ccccc12)NC(=O)[C@H](CCCNC(=N)N)NC(=O)[C@H](CCCNC(=N)N)NC(=O)[C@H](C)NC(=O)[C@H](CCCCN)NC(=O)[C@@H](N)Cc1ccccc1)C(=O)NCCCCCC(N)=O [[Ala^19]-LfcinB (17–31)2] (I: H-FKARRWQWRMKKLGAK[Ahx]-NH2 / II: H-FKARRWQWRMKKLGA; amide I:16-II:C) |  |  | 24 µM | 100 | > 48 µM | > 200 | > 200 | 
2 | 102 µM |  |  | > 102 µM | > 102 | > 102 | CSCC[C@H](NC(=O)[C@H](CCCNC(=N)N)NC(=O)[C@H](Cc1c[nH]c2ccccc12)NC(=O)[C@H](CCC(N)=O)NC(=O)[C@H](Cc1c[nH]c2ccccc12)NC(=O)[C@H](CCCNC(=N)N)NC(=O)[C@H](CCCNC(=N)N)NC(=O)[C@H](C)NC(=O)[C@H](CCCCN)NC(=O)[C@@H](N)Cc1ccccc1)C(=O)N[C@@H](CCCCN)C(=O)N[C@@H](CCCCN)C(=O)N[C@@H](CC(C)C)C(=O)NCC(=O)N[C@@H](C)C(=O)O [[Ala^19]-LfcinB (17–31)] |  |  | 102 µM |  | 102 µM |  |  | 
3 | 88 µM | 200 |  | > 88 µM | > 88 | > 88 | CSCC[C@@H]1NC(=O)[C@H](CCCNC(=N)N)NC(=O)[C@H](Cc2c[nH]c3ccccc23)NC(=O)[C@H](CCC(N)=O)NC(=O)[C@H](Cc2c[nH]c3ccccc23)NC(=O)[C@H](CCCNC(=N)N)NC(=O)[C@H](CCCNC(=N)N)NC(=O)[C@H](C)NC(=O)[C@H](CCCCN)NC(=O)[C@H](Cc2ccccc2)NC(=O)[C@@H](N)CSSC[C@@H](C(N)=O)NC(=O)CCCCCNC(=O)[C@H](C)NC(=O)CNC(=O)[C@H](CC(C)C)NC(=O)[C@H](CCCCN)NC(=O)[C@H](CCCCN)NC1=O [[Ala^19]-LfcinB (17–31)cyc] (H-CFKARRWQWRMKKLGA[Ahx]C-NH2; disulfide 1-18) |  |  | 88 µM | 200 | > 88 µM | > 200 | > 200 | 

The next lines start with the molecule.

Row | Molecule | Antibacterial Effect MIC ([1]; ATCC 25922, 24 h) | Antibacterial Effect MIC [1, 6] [µg/mL] | Antibacterial Effect MIC ([2]; E. coli ATCC 11775, value in parentheses, microdilution in MHB, 24 h at 37 °C, n = 2) [µM] | Antibacterial Effect MIC ([2]; ATCC 11775, 24 h) | IC50 at 2 h [3] [µM] | IC50 at 2 h [4] [µM] | Antibacterial Effect MBC ([1]; E. coli ATCC 25922, value in parentheses, plated on MHA overnight at 37 °C, n = 2) [µM] | Antibacterial Effect MBC ([2]; E. coli ATCC 11775, value in parentheses, plated on MHA overnight at 37 °C, n = 2) [µM] | Antibacterial Effect MBC ([1]; ATCC 25922) | Antibacterial Effect MBC [1, 7] [µg/mL] | Antibacterial Effect MBC ([2]; ATCC 11775) | Antibacterial Effect MIC [2, 8] [µg/mL] | Antibacterial Effect MBC [2, 9] [µg/mL] | IC50 [5] [µM]
4 | N=C(N)NCCC[C@@H]1NC(=O)[C@H](Cc2c[nH]c3ccccc23)NC(=O)[C@H](CCC(N)=O)NC(=O)[C@H](Cc2c[nH]c3ccccc23)NC(=O)[C@H](CCCNC(=N)N)NC(=O)[C@H](CCCNC(=N)N)NC(=O)[C@@H](N)CSSC[C@@H](C(N)=O)NC(=O)CCCCCNC1=O [LfcinB (20–25)cyc] (H-CRRWQWR[Ahx]C-NH2; disulfide 1-9) | 77 µM | 100 | 153 |  |  |  | > 153 | 153 |  |  |  |  |  | 
5 | CSCC[C@H](NC(=O)[C@H](CCCNC(=N)N)NC(=O)[C@H](Cc1c[nH]c2ccccc12)NC(=O)[C@H](CCC(N)=O)NC(=O)[C@H](Cc1c[nH]c2ccccc12)NC(=O)[C@H](CCCNC(=N)N)NC(=O)[C@@H](N)CCCNC(=N)N)C(=O)N[C@@H](CCCCN)C(=O)N[C@@H](CCCCN)C(=O)N[C@@H](CC(C)C)C(=O)NCC(=O)NCCCC[C@H](NC(=O)CNC(=O)[C@H](CC(C)C)NC(=O)[C@H](CCCCN)NC(=O)[C@H](CCCCN)NC(=O)[C@H](CCSC)NC(=O)[C@H](CCCNC(=N)N)NC(=O)[C@H](Cc1c[nH]c2ccccc12)NC(=O)[C@H](CCC(N)=O)NC(=O)[C@H](Cc1c[nH]c2ccccc12)NC(=O)[C@H](CCCNC(=N)N)NC(=O)[C@@H](N)CCCNC(=N)N)C(=O)NCCCCCC(N)=O [LfcinB (20–30)2] (I: H-RRWQWRMKKLGK[Ahx]-NH2 / II: H-RRWQWRMKKLG; amide I:12-II:C) | 30 µM | 100 |  | 60 µM |  |  |  |  | 60 µM | 200 | 60 µM | 200 | 200 | 
6 | CSCC[C@@H]1NC(=O)[C@H](CCCNC(=N)N)NC(=O)[C@H](Cc2c[nH]c3ccccc23)NC(=O)[C@H](CCC(N)=O)NC(=O)[C@H](Cc2c[nH]c3ccccc23)NC(=O)[C@H](CCCNC(=N)N)NC(=O)[C@H](CCCNC(=N)N)NC(=O)[C@@H](N)CSSC[C@@H](C(N)=O)NC(=O)CCCCCNC(=O)CNC(=O)[C@H](CC(C)C)NC(=O)[C@H](CCCCN)NC(=O)[C@H](CCCCN)NC1=O [LfcinB (20–30)cyc] (H-CRRWQWRMKKLG[Ahx]C-NH2; disulfide 1-14) | 200 µg/mL |  |  | 200 µg/mL |  |  |  |  | 200 µg/mL |  | 200 µg/mL |  |  | 
7 | I: H-RRWQWRMKKLGK[Ahx]C-NH2 / II: H-RRWQWRMKKLGK[Ahx]C-NH2 / III: H-RRWQWRMKKLG / IV: H-RRWQWRMKKLG (amide I:12-III:C, II:12-IV:C; disulfide I:14-II:14) [LfcinB (20–30)4] | 15 µM | 200 |  | 15 µM |  |  |  |  | 15 µM | 200 | 15 µM | 200 | 200 | 
8 | RRWQWRMKKLG-NH2 [LfcinB (20–30)] | 130 µM |  |  | 130 µM | > 130 | > 130 |  |  | 130 µM |  | 130 µM |  |  | > 500
